# Tests used:
# SW620 cells [1] = experiment: Cell proliferation of SW620 cells with free ligand in the medium (cell counting); format: cell-based, human
# Description: FIG. 8. RT-PCR of the receptor when the cells are kept in contact with lactisole for 9 days, comparing it with the controls (SW620 cultured in medium with low glucose concentration) (A). Cell proliferation of SW620 cells cultured in medium with low glucose concentration, and increasing concentrations of lactisole (from 0.44 mg/mL to 7 mg/mL) for 72 h (B). Colony formation of control SW620 cells or in contact with the lactisole ligand, at a concentration of 3.5 mg/mL, after 15 days of culture (C). Beta-galactosidase staining, indicative of cellular senescence, in SW620 cells treated with lactisole (3.5 mg/mL for 72 hours, arrows show cells where staining can be seen) (D). Western blot showing the expression of different proteins involved in tumor progression in SW620 cells when they are exposed to different glucose concentrations (high and low) and lactisole (3.5 mg/ml) for 9 days (E). […] Cell proliferation studies were carried out in SW620 cells, FIG. 7A, cultured in medium with high and low glucose concentration. […] Photos were taken using the microscope (Leica DMIL® microscope) and subsequently they were trypsinized, and the number of cells was counted to make the comparison between these and the starting ones in order to observe the effect of the ligand on the cells. […]
# [2] = Immunization of mice with TAS1R3 peptide, titration of bleeds; format: in vivo; conditions: 4 plus 2 doses of 50 μg of peptide
# Description: The resulting protein was purified to homogeneity with a final purity of 90-95%, 2 mg conjugated to KLH, 3 mg conjugated to BSA. The design of the genomic construct was carried out based on the literature (Maitrepierre et al., 2012). Likewise, a study of storage buffer formulation was carried out to preserve the integrity of the protein (restricting the use of detergents and polysaccharides in the final formula). The batch obtained was aliquoted in labeled sterile vials and stored at −80° C. until use. After several immunizations of the mice with 4 plus 2 doses of 50 μg of peptide, the bleeds were titrated in order to evaluate the increase of the response against the peptide.
# SW620 cells [3] = experiment: Colony formation of SW620 cells with free ligand; format: cell-based, human; conditions: SW620, low glucose medium, 3.5 mg/mL ligand, 15 days, versus control SW620 (FIG. 8C)
# Description: Cell proliferation studies were carried out in SW620 cells, FIG. 7A, cultured in medium with high and low glucose concentration. The cells were trypsinized and plated the same number of cells in order to count them at times 0, 24, 72, 96 and 168 hours, using for this the Neubauer chamber, after trypsinization thereof. In an analogous manner, cell proliferation studies were carried out in medium with the presence of free ligand, FIG. 8, which was added to the culture medium at different concentrations. Photos were taken using the microscope (Leica DMIL® microscope) and subsequently they were trypsinized, and the number of cells was counted to make the comparison between these and the starting ones in order to observe the effect of the ligand on the cells. […] However, when studies of colony formation were carried out, starting from an amount of 200 cells per well and waiting for 15 days, it was observed that cells cultured in medium with low concentration of glucose, and that express higher levels of receptor, formed more colonies than those grown in high glucose medium (FIG. 7B). For colony formation studies, 12 well plates were used, plating in different amounts of cells (200, 400,600 and 800 cells per well), in medium with high (4500 mg/L) and low (1000 mg/L) content of glucose. […]
# p-ERK, p-AKT, IGF-IR = experiment: Western blot of proteins involved in tumor progression in SW620 cells; format: cell-based, human; conditions: SW620, lactisole 3.5 mg/ml or high glucose (HG), 9 days (FIG. 8E)
# Description: FIG. 8. RT-PCR of the receptor when the cells are kept in contact with lactisole for 9 days, comparing it with the controls (SW620 cultured in medium with low glucose concentration) (A). Cell proliferation of SW620 cells cultured in medium with low glucose concentration, and increasing concentrations of lactisole (from 0.44 mg/mL to 7 mg/mL) for 72 h (B). Colony formation of control SW620 cells or in contact with the lactisole ligand, at a concentration of 3.5 mg/mL, after 15 days of culture (C). Beta-galactosidase staining, indicative of cellular senescence, in SW620 cells treated with lactisole (3.5 mg/mL for 72 hours, arrows show cells where staining can be seen) (D). […]
# For the qualitative study of proteins, Western Blot was performed from proteins isolated from the SW620 cell line, and the results are shown in FIG. 6 (B). […] The total protein of each sample was quantified by the […] (conversion method of bicathionic to monocationic copper in alkaline conditions influenced by specific amino acids such as cysteine, cystine, tryptophan, tyrosine and also by the peptide chain; the amount of bicathionic copper will depend of the amount of these components and will be determined spectrophotopically) using the commercial kit DC-Assay (BIO-RAD®) and establishing a calibration line with bovine serum albumin (BSA, Sigma-Aldrich). […]
# TAS1R3 receptor = experiment: RT-PCR of TAS1R3 receptor in SW620 cells kept in contact with lactisole; format: cell-based, human; conditions: SW620, low glucose medium, lactisole for 9 days, versus controls (FIG. 8A)
# Description: Metastatic colon cells from the lymph node (SW620, CCL-227), colorectal adenocarcinoma epithelial cells (SW480, CCL-228), lung carcinoma epithelial cells (A549, CCL-185), and metastatic lung cells from the liver (H1755, CRL-5892), pancreatic carcinoma cells (MIA PaCa-2, CRL-1420), and glioblastoma cells (U118, HTB-15 and U87MG, HTB-14) were used. The SW620, SW480, A549, U118 and U87MG lines were maintained in DMEM HG medium (Dulbecco's Modified Eagle's Medium—High glucose, Sigma-Aldrich), and the H1755 line in RPMI 1640 medium (Gibco®, LifeTecnologies), both supplemented to the 10% with fetal bovine serum (Gibco®, LifeTecnologies) and 1% with antibiotic (penicillin and streptomycin, Sigma-Aldrich). For the quantitative analysis of the expression of TAS1R3, a polymerase chain reaction was carried out with reverse transcriptase (RT-PCR), starting from RNA extracted from all cell lines in culture. […] RNA extraction was carried out using the extraction kit (GeneJET RNA Purification Kit, ThermoScientic), and the analysis was carried out in a manner similar to that described in a previous paragraph. Once the procedure was finished, the data were analyzed.
# SW620 cells [4] = experiment: Beta-galactosidase staining for cellular senescence; format: cell-based, human; conditions: SW620, low glucose medium, 3.5 mg/mL, 72 hours (FIG. 8D)
# Description: To determine whether after cell incubation with the ligand cell senescence is induced, 500,000 cells of the SW620 line were cultured in 6-well plates and medium with low glucose concentration. In several wells, ligand (3.5 mg/mL) was added. After 72 hours, the wells were washed and fixed (2% formaldehyde, 0.2% glutaraldehyde in PBS) for 15 minutes at room temperature. The solution was eliminated giving three washes with 1×PBS, and then the staining solution was applied, calculated for one milliliter of solution: 200 μL citric acid/phosphate buffer, pH 6.0 (dibasic sodium phosphate (Na2HPO4) 0.2 M+0.1 M citric acid), 30 μL 5 M NaCl, 50 μL potassium ferricyanide (K3[Fe(CN)6]) 100 mM, 50 μL potassium ferrocyanide (K4[Fe(CN)6]) 100 mM, 2 μL magnesium chloride (MgCl2) 1 M, 50 μL solution X-gal (20 mg/mL of 5-bromo-4-chloro-3-indolyl β D-galactopyranoside in […]) and 618 μL distilled water. It was incubated in the oven at 37° C. overnight, the wells were washed with distilled water in motion twice, to then apply PBS 1× and observe the possible senescent cells under the Vert microscope. Al, Zeiss®. Blue staining is observed, corresponding to cells in senescence.
compound,measurement,setting,value
"CFYDEKR [peptide derived from brazzein, brazzein peptide, ligand for TAS1R3]",Cell proliferation,"SW620 cells [1]; SW620, DMEM supplemented with different receptor ligands, extent depends on concentration and molecule (FIG. 8F)",interfere with proliferation
"Acetyl-LSQQLRMKGDYVLGGC-amide (Ac-LSQQLRMKGDYVLGGC-NH2) [TAS1R3 N-terminal extracellular peptide immunogen, conjugated to KLH / BSA]",Response against the peptide (titration of bleeds),[2],"some response against the peptide, although with very low values"
"COc1ccc(OC(C)C(=O)O)cc1 (stereo not shown) [lactisole, Lactisole]",Colony formation,SW620 cells [3],no representative colony formed on the plate was observed
same,Activation of pathways related to tumor progression (western blot),"p-ERK, p-AKT, IGF-IR","activates pathways related to tumor progression, such as p-ERK, p-AKT or IGF-IR"
same,Expression of the TAS1R3 receptor (RT-PCR),TAS1R3 receptor,increase in the expression of the receptor
same,Cellular senescence (beta-galactosidase staining),SW620 cells [4],induction of cellular senescence
same,Cell proliferation,"SW620 cells [1]; SW620, low glucose medium, lactisole 0.44 to 7 mg/mL, 72 h, effect at higher concentrations (FIG. 8B)",interferes with cell proliferation
